Results on three molecules are retold here after patent publication EP0086660B1, “Renally active tetrapeptides” (SMITHKLINE BECKMAN CORPORATION, priority 1982, dated 1985).

Like-named read-outs stand apart in the source and are kept apart here. Square brackets hold non-standard residues; d marks the D form. Peptide text beside a SMILES is read from it. * marks the point of attachment. Butanoyl(4-(4-HOPh)) = O=C(CCCc1ccc(O)cc1)*

One assay deals with anesthetized dogs. In words: anesthetized dog protocol: infusion, measuring MAP, RBF, RVR and HR. It is filed as in vivo.
For assay [1] the following is noted: secondary test.
The conditions of assay [2]: secondary test. The source holds these as a separate data set.
Assay [3] deals with spontaneously hypertensive rat.
The mark [4] stands for this setting: cumulative effects at 300 µg/kg/min.

As to `O=C(NCC(=O)N1CCC[C@H]1C(=O)O)[C@@H](Cc1ccccc1)NC(=O)[C@@H]1CCCN1C(=O)CCCc1ccc(O)cc1` [Example 3, N-4-(4-hydroxyphenyl)-butyryl-L-prolyl-D-phenylalanyl-glycyl-L-proline] ({Butanoyl(4-(4-HOPh))}-P[dF]GP-OH), in the assay with anesthetized dogs (setting [4]), the HR is recorded as -8 and the RBF result is recorded as “+22”. The RVR in the assay on anesthetized dogs (cumulative effects at 300 µg/kg/min, parameter name not printed before the value) is on record as -18.
`NCCc1ccc(O)c(O)c1` [Dopamine, dopamine] came in with an ED15 in assay [1] of 3.5 µg/kg.
Molecule “4-(4-hydroxyphenyl)-butyryl-L-prolyl-D,L-a-methylphenylalanyl-glycyl-L-proline [Example 2]” displayed an ED15 in assay [2] of 1.9e-06 µg/kg. Also, in assay [3] (rat, in vivo), the “activity in the spontaneously hypertensive rat protocol” value is “not active”. In addition, the water diuresis result in assay [3] (spontaneously hypertensive rat protocol) is “slight water diuresis”. In addition, in the assay with toad bladder, the “reversal of antidiuretic hormone activity” value is “inactive”. This molecule came in with a Renal blood flow with anesthetized dogs (cumulative effect, measured after the normal period of the test, increased from 127 ml/min) of 162 mL/min. In addition, the “cardiac rate (HR)” value with anesthetized dogs (cumulative effect, measured after the normal period of the test, predrug level 140 BPM) came to 105 BPM.
